Columns and labels:
3D7 P. falciparum strain = assay: parasite proliferation assay in infected red blood cells (SYBR Green I); assay type: cell-based, Plasmodium falciparum; details: Plasmodium falciparum, 3D7, Erythrocyte, 3D7 strain; read-out: EC50 3D7 strain
Summary of the method: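 P. falciparum 3D7 grown in O+ human erythrocytes to 3–8% parasitemia and exposed to compounds. Proliferation read as the increase in parasite DNA. Detection used SYBR Green I in saponin/triton-X/EDTA lysis buffer, with overnight lysis at room temperature.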

W2 strain = assay: parasite proliferation assay in infected red blood cells (SYBR Green I), W2 strain; assay type: cell-based; details: Erythrocyte
Text: Compounds of the invention can be assayed to measure their capacity to inhibit proliferation of parasitemia in infected red blood cells. The proliferation is quantified by the addition of SYBR Green I (INVITROGEN)® dye which has a high affinity for double stranded DNA.

Structure (SMILES)	EC50 (3D7 P. falciparum strain) [µM]	EC50 (W2 strain) [µM]
O=C(Cn1ccc2ccccc21)N1CCn2c(nc(-c3ccc(F)cc3)c2Nc2ccc(Cl)c(F)c2)C1 [Compound 303]	0.54	0.439
CCN1CCC(CC(=O)N2CCn3c(nc(-c4ccc(F)cc4)c3Nc3ccc(Cl)c(F)c3)C2)CC1 [Compound 304]	3.21	2.95
O=C(CNc1ccccc1)N1CCn2c(nc(-c3ccc(F)cc3)c2Nc2ccc(Cl)c(F)c2)C1 [Compound 305]	0.09	0.094
O=C(Cc1n[nH]c2ccccc12)N1CCn2c(nc(-c3ccc(F)cc3)c2Nc2ccc(Cl)c(F)c2)C1 [Compound 306]	0.42	0.334
CCCNCC(=O)N1CCn2c(nc(-c3ccc(F)cc3)c2Nc2ccc(C)cc2)C1 [Compound 307]	0.03	0.022
CCCCCNCC(=O)N1CCn2c(nc(-c3ccc(F)cc3)c2Nc2ccc(C)cc2)C1 [Compound 308]	0.06	0.068
COCCNCC(=O)N1CCn2c(nc(-c3ccc(F)cc3)c2Nc2ccc(C)cc2)C1 [Compound 309]	0.08	0.068
COCCCNCC(=O)N1CCn2c(nc(-c3ccc(F)cc3)c2Nc2ccc(C)cc2)C1 [Compound 310]	0.52	0.397
N[C@H](Cc1ccccc1)C(=O)N1CCn2c(nc(-c3ccc(F)cc3)c2Nc2ccc(Cl)c(F)c2)C1 [Compound 311]	0.09	0.072
C[C@H](OCc1ccccc1)[C@H](N)C(=O)N1CCn2c(nc(-c3ccc(F)cc3)c2Nc2ccc(Cl)c(F)c2)C1 [Compound 312]	1.64	0.897
CC(C)[C@H](N)C(=O)N1CCn2c(nc(-c3ccc(F)cc3)c2Nc2ccc(Cl)c(F)c2)C1 [Compound 313]	0.02	0.004
C[C@H](N)C(=O)N1CCn2c(nc(-c3ccc(F)cc3)c2Nc2ccc(Cl)c(F)c2)C1 [Compound 314]	0.03	0.02
N[C@@H](Cc1cscn1)C(=O)N1CCn2c(nc(-c3ccc(F)cc3)c2Nc2ccc(Cl)c(F)c2)C1 [Compound 315]	0.02	0.008
N[C@@H](Cc1ccc(F)cc1)C(=O)N1CCn2c(nc(-c3ccc(F)cc3)c2Nc2ccc(Cl)c(F)c2)C1 [Compound 316]	0.02	0.014
CC(C)[C@@H](N)C(=O)N1CCn2c(nc(-c3ccc(F)cc3)c2Nc2ccc(Cl)c(F)c2)C1 [Compound 318]	0.15	0.098
N[C@@H](Cc1ccc(F)c(F)c1)C(=O)N1CCn2c(nc(-c3ccc(F)cc3)c2Nc2ccc(Cl)c(F)c2)C1 [Compound 319]	0.04	0.027
CNC(C)(C)C(=O)N1CCn2c(nc(-c3ccc(F)cc3)c2Nc2ccc(Cl)c(F)c2)C1 [Compound 320]	0.17	0.103
O=C([C@@H]1CCN1)N1CCn2c(nc(-c3ccc(F)cc3)c2Nc2ccc(Cl)c(F)c2)C1 [Compound 321]	0.02	0.011
O=C(C1COCCN1)N1CCn2c(nc(-c3ccc(F)cc3)c2Nc2ccc(Cl)c(F)c2)C1 (stereo not drawn) [Compound 323]	1.73	1.33
N[C@@H](Cc1ccccc1)C(=O)N1CCn2c(nc(-c3ccc(F)cc3)c2Nc2ccc(Cl)c(F)c2)C1 [Compound 324]	0.03	0.03
N[C@@H](CC1CCC1)C(=O)N1CCn2c(nc(-c3ccc(F)cc3)c2Nc2ccc(Cl)c(F)c2)C1 [Compound 325]	0.03	0.029
CC(C)(C)[C@H](N)C(=O)N1CCn2c(nc(-c3ccc(F)cc3)c2Nc2ccc(Cl)c(F)c2)C1 [Compound 326]	0.03	0.022
C[C@@H](N)C(=O)N1CCn2c(nc(-c3ccc(F)cc3)c2Nc2ccc(Cl)c(F)c2)C1 [Compound 327]	0.03	0.021
N#Cc1ccc(C[C@H](N)C(=O)N2CCn3c(nc(-c4ccc(F)cc4)c3Nc3ccc(Cl)c(F)c3)C2)cc1 [Compound 328]	0.34	0.229
Cc1ccc(Nc2c(-c3ccc(F)cc3)nc3n2CC(C)NC3)cc1 (stereo not drawn) [Compound 329]	0.15	0.116
Cc1ccc(Nc2c(-c3ccncc3)nc3n2CCNC3)cc1 [Compound 354]	6.32	0.564
Cc1ccc(Nc2c(-c3ccc(F)cc3)nc3n2CCN(C(=O)C(Nc2ccc(C(F)(F)F)cc2Cl)C(C)C)C3)cc1 (stereo not drawn) [Compound 355]	2.81	2.27
O=C([C@H]1CCCO1)N1CCn2c(nc(-c3ccc(F)cc3)c2Nc2ccc(Cl)c(F)c2)C1 [Compound 356]	1.26	0.872
Cn1cc(CC(=O)N2CCn3c(nc(-c4ccc(F)cc4)c3Nc3ccc(Cl)c(F)c3)C2)c2ccccc21 [Compound 357]	7.49	4.71
CC(C)C[C@H](O)C(=O)N1CCn2c(nc(-c3ccc(F)cc3)c2Nc2ccc(Cl)c(F)c2)C1 [Compound 358]	0.13	0.049

Reference: patent publication US9469645B2, “Compounds and compositions for the treatment of parasitic diseases” (Novartis AG, priority 2009, dated 2016)
